Active and inactive are the calls of the source. Rule as the data show it: actives have a measured IC50 and inactives only a lower limit.

The assay deals with Envelope glycoprotein gp160 (Human immunodeficiency virus 1, UniProt Q6QLK5). The assay is described as follows: cell-free HIV fusion peptide-binding blockers – biochemical, uHTS, fluorescence dequenching, […] (AID 1986).
Chain of Envelope glycoprotein gp160 (Q6QLK5 whole entry, the tested form may be a part): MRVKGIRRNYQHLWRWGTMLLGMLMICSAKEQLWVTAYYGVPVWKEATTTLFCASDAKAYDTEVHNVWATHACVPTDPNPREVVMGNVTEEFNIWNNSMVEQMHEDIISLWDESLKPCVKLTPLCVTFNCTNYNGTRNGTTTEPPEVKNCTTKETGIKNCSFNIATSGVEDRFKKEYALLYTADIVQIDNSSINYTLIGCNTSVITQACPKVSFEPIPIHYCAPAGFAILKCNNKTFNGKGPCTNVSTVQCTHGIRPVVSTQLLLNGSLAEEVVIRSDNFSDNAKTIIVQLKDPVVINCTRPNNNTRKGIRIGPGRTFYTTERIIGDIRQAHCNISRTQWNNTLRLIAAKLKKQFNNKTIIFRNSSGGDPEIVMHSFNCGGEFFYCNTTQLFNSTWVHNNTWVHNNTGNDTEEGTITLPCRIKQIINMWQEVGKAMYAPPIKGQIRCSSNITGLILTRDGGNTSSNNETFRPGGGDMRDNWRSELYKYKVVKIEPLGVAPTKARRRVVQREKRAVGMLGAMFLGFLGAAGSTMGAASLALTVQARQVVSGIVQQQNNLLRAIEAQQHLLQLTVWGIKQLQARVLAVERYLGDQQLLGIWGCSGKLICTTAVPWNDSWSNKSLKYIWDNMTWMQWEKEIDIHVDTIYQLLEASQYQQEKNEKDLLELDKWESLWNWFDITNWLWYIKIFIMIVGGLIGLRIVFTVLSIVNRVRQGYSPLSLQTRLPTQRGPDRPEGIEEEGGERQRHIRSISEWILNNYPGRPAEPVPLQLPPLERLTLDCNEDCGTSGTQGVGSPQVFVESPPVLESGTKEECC

Turning to `COc1ccc(-c2coc3c(C)c4oc(=O)c(CCC(=O)O)c(C)c4cc23)cc1`, the half-maximal inhibitory concentration (IC50) (in general, the concentration that inhibits the measured activity by half) was 41.7 µM (active).

For the origin of these results see ChEMBL document CHEMBL1201862, “PubChem BioAssay data set” (2004).
